Article PMC8234864, “Early Effects of the Soluble Amyloid β25-35 Peptide in Rat Cortical Neurons: Modulation of Signal Transduction Mediated by Adenosine and Group I Metabotropic Glutamate Receptors” (International Journal of Molecular Sciences, 2021)
“Also recorded” adds a separate entry of the source.

Columns and labels:
[1] = test system: rat cortical neurons exposed to Aβ25-35; assay: Effect of receptor ligands on Aβ25-35 induced toxicity (MTT); assay type: cell-based; details: ligand 100 µM added 30 min before Aβ25-35 (25 µM, 24 h)
Experimental: (§1) Aβ25-35 and Aβ1-42 were water-soluble peptides, however, while Aβ25-35, the functional domain of Aβ required for both neurotrophic and neurotoxic effects, was directly added to neuronal cultures after its solubilisation, Aβ1-42 was solved in water and maintained for 24 h at 37 °C before its addition to promote its aggregation. To test the effect of mGluR ligands on cell death induced by Aβ in neuronal cultures, these drugs were added 30 min before the addition of Aβ25-35 and maintained during Aβ exposure. Unless otherwise indicated, all chemicals were dissolved in water.
(§2) Cell viability was determined on 96-well plates using an in vitro toxicology assay kit based on a mitochondrial-dependent reaction that transforms 3-[4,5-dimetylthiazol-2-yl]-2,5-diphenyltetrazolium bromide (MTT) into formazan crystals. Briefly, at the end of treatments, cells were incubated in culture medium with MTT solution (5 mg/mL) at 37 °C for 3 h. After incubation, MTT solubilization solution (10% Triton X-100 plus 0.1 M HCl in isopropanol anhydrous) was added into the wells to dissolve formazan crystals and the absorbance of each well was measured at 570 nm and 690 nm, according to the manufacturer’s instructions.

[2] = test system: Group I mGluR/PLC signalling pathway; assay: Phospholipase C activity (IP3 accumulation), basal and DHPG-stimulated; assay type: cell-based, rat; details: added 10 min before DHPG, control cells
Experimental: This method was previously reported and is divided into two well-defined steps: IP3 accumulation: culture medium was discharged, and cells were washed twice with DMEM containing 20 mM HEPES, pH 7.4. After 20 min at 37 °C, different ligands were added to cells for 10 min at 37 °C to analyse their effect on PLC activity in a final reaction volume of 300 μL. The enzymatic reaction was stopped and cells lysed by adding 50 μL 2.8 M perchloric acid and placing plates on ice for 30 min. The medium was neutralized with 70 μ[…] Tris-HCl, 2 M KOH, and 60 mM EGTA, transferred to Eppendorf tubes and centrifuged at 12,000× g for 10 min. The supernatant was then collected to determine the IP3 level. IP3 level determination: IP3 levels in cells were determined as previously reported by Palmer and modified by […] [100]. Incubation of [^3H]IP3 (0.2 pmol; 3000-5000 cpm) in assay buffer (100 mM Tris-HCl, 4 mM EDTA, 4 mM EGTA, 4 mg/mL BSA, pH 9.0), binding protein (500-600 μg), and 25-50 μL of supernatant obtained from IP3 accumulation assay was carried out. Samples were incubated at 4 °C for 60 min and centrifuged at 12,000× g for 10 min. Pellets were suspended in 100 μL 0.2% SDS and transferred to scintillation vials to measure radioactivity. A standard curve was made with known [^3H]IP3 concentrations (0.25-10 μM). Nonspecific binding was determined in the presence of 10 μM unlabeled IP3. Binding protein was obtained from bovine suprarenal capsules according to Palmer's protocol.

rat cortical neurons = assay: MTT reduction cell viability assay after Aβ exposure; assay type: cell-based; details: 25 µM, 24 h, MTT, positive control
Experimental: as §1, §2

Compound	effect on Aβ25-35 induced toxicity [1]	further results
CCNC(=O)[C@H]1O[C@@H](n2cnc3c(N)nc(NCCc4ccc(CCC(=O)O)cc4)nc32)[C@H](O)[C@@H]1O [CGS21680, 2-[p-(2-carboxyethyl)phenylamino]-50-N-ethylcarboxyamide adenosine]	no significant effect	
OC[C@H]1O[C@@H](n2cnc3c(NC4CCCC4)ncnc32)[C@H](O)[C@@H]1O [CPA, N^6-cyclopentyladenosine]	no significant effect	
N[C@H](C(=O)O)c1cc(O)cc(O)c1 [DHPG, (S)-3,5-dihydroxyphenylglycine]	no significant effect	
CCCn1c(=O)c2[nH]c(C3CCCC3)nc2n(CCC)c1=O [DPCPX, 8-Cyclopentyl-1,3-dipropylxanthine]	no significant effect; also recorded: ineffective	
CO[C@H]1CC[C@@H](C(=O)c2ccc3nc4c(cc3c2)CCCO4)CC1 [JNJ 16259685, (3,4-Dihydro-2H-pyrano[2,3-b]quinolin-7-yl)-(cis-4-methoxycyclohexyl)-methanone]		effect on DHPG-elicited PLC stimulation ([2]; 0.5 µM): blocked DHPG-elicited PLC stimulation
Cc1cccc(C#Cc2ccccc2)n1.Cl [MPEP, 2-Methyl-6-(phenylethynyl)pyridine hydrochloride]		effect on DHPG-elicited PLC stimulation ([2]; 1 µM): blocked DHPG-elicited PLC stimulation
Nc1nc(NCCc2ccc(O)cc2)nc2nc(-c3ccco3)nn12 [ZM241385, 4-(2-[7-Amino-2-(2-furyl) [1,2,4]triazolo [2,3-a] [1,3,5]triazin-5-ylamino]ethyl)phenol]	no significant effect	
Aβ1-42: whole amyloid β peptide, kept 24 h at 37 °C to promote aggregation; positive control		cell viability (rat cortical neurons): decrease in cell viability
